Patent publication US11066399B2, “Ferroportin inhibitors” (Vifor (International) AG, priority 2015, dated 2021)
Marks after values point to notes of the source that are not given here.

Key:
ferroportin (Fpn) [1] = molecular target: T1, ferroportin (Fpn) (Mus musculus, UniProt Q9JHI9); test: Hepcidin Internalization Assay (J774); type: cell-based; conditions: average (AVE) of multiple measurements; TMR-hepcidin 25 nM, J774 cells
T1 construct: host or cells: J774 mouse macrophage cell line, Fe(III)-NTA induced
T1 sequence (Q9JHI9 1-570): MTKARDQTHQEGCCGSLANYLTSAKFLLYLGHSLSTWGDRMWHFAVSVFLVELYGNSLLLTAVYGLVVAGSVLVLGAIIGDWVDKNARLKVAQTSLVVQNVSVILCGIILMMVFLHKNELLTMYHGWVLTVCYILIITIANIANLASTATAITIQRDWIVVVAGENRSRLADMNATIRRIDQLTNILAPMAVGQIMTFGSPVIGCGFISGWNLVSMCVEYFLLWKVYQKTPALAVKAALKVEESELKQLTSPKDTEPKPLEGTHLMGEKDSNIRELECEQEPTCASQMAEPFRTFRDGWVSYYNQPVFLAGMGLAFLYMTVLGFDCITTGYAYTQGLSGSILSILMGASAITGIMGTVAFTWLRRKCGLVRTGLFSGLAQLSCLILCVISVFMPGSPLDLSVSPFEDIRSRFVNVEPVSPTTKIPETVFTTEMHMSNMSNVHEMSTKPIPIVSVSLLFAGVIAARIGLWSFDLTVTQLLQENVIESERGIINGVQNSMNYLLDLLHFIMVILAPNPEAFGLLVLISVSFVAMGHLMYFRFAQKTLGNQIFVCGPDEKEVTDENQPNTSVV
Source text: This cellular assay allows quantification of the binding of hepcidin to ferroportin (Fpn) through microscopic detection of internalization of a fluorescently labeled hepcidin into J774 cells. […] Binding of hepcidin to Fpn triggers internalization and degradation of both hepcidin and Fpn. However, the TMR (6-carboxytetramethylrhodamine) fluorophore attached to hepcidin remains associated with the cell after degradation of the hepcidin peptide backbone. Therefore, microscopic detection of cell-associated TMR fluorescence is a measure of hepcidin binding to Fpn and internalization of hepcidin and Fpn. If TMR-hepcidin is prevented from binding to Fpn, cellular TMR fluorescence remains low (Dürrenberger et al, 2013). The effect of small molecular weight Fpn inhibitor compounds in this assay was evaluated in vitro as described below.
After overnight incubation, cells were washed 3 times with pre-warmed DMEM w/o phenol red, 30 μl/well of DMEM w/o phenol red was added after the final wash and 10 μl/well of dilution series of test compounds were added in triplicates. […] Cells were incubated in a total volume of 50 μl at 37° C. with 5% CO2 for 2 hours, then Hoechst 33342 dye was added to a final concentration of 0.5 μg/ml to stain nuclei and further incubated for 10 min. at 37° C. with 5% CO2. Cells were washed 3 times with PBS and fixed in 100 μl of 4% paraformaldehyde in PBS for 15 min. at room temperature. After removal of the paraformaldehyde solution, cells were washed 3 times with PBS leaving 100 μl per well and the plates were sealed with foil plate seal. TMR (530-550 nm excitation/575-625 nm emission/400 ms exposure time) and Hoechst 33342 (360-370 nm excitation/420-460 nm emission/10 ms exposure time) fluorescence images were acquired using a ScanR plate imager (Olympus) with a 20× high NA objective. Four pictures were acquired per well and fluorescence channel covering ca. 1500 cells per well. The acquired image data was analysed with the ScanR image analysis software. Image analysis included detection of nuclei (Hoechst 33342 fluorescence), identification of cell-associated regions, application of a virtual channel and thresholding for rolling-ball-type background reduction, followed by application of the Sum(Mean) algorithm to measure the TMR fluorescence associated with cells as a quantitative measure for internalized TMR-hepcidin. IC50 values were calculated with the Sum(Mean) raw data using “log(inhibitor) vs. response” curve fitting of Prism 5 software (GraphPad Software Inc., version 5.02).

anemic Wistar rats = test: Prevention of iron absorption in anemic rats; type: in vivo, rat; conditions: 1 h before 0.5 mg/kg ferrous sulfate
Method: To assess the in vivo efficacy of ferroportin (Fpn) inhibitors to block iron absorption, a series of Fpn inhibitors were tested in an anemic rat model for iron absorption. Wistar rats (3-4 weeks old, n=5, Janvier Labs) were fed a low iron diet (Provimi-Kliba, Cat. 2039) until their hemoglobin (Hb) values reach 7-8 g/dl one day before dosing of the Fpn inhibitor compounds. One hour before oral application of 0.5 mg/kg of ferrous sulfate, test compounds formulated in methyl cellulose or Cremophor were dosed orally. Blood samples were taken by tail vein puncture one hour before administration of iron (−1 h), immediately after dosing of the Fpn inhibitors (0 h) and one hour (1 h), three hours (3 h) and occasionally up to 6 hours (6 h) after dosing of the test compounds. Serum iron levels were measured (Abbott Diagnostics, Cat. 6K95) and inhibition of the rise of serum iron three hours after dosing of the test compound was calculated as a measure for efficacy of the Fpn inhibitors in blocking iron absorption (Table 7).

ferroportin (Fpn) [2] = molecular target: T1, ferroportin (Fpn); test: Ferroportin Ubiquitination and Degradation (immunoprecipitation, Western blot, J774 cells); type: cell-based; design: key: +: comparable to hepcidin; −: no effect; +/−: intermediate effect; conditions: ca. 10-fold IC50 concentration, visual inspection of Western blots
Method: Exposure of cells expressing ferroportin (Fpn) to hepcidin is known to trigger ubiquitination and subsequent internalization and degradation of Fpn (Qiao, 2012). The potential of Fpn inhibitors to induce Fpn ubiquitination and degradation was investigated with an immunoprecipitation assay using the J774 mouse macrophage cell line which expresses Fpn upon treatment with iron.
Cells were incubated with synthetic human hepcidin (Bachem, Cat. H-5926) or Fpn inhibitor compounds for 10 min or 120 min. Cells were washed and lysed with ice-cold lysis buffer (Pierce, Life Technologies, Cat. 87787) including 1×HALT protease inhibitor cocktail (Life technologies, Cat. 78429) and 10 mM iodoacetamide (Sigma, Cat. 16125) to stabilize ubiquitinated proteins. Immunoprecipitation was done using the Pierce Classic IP Kit (Life Technologies, Cat. 26146) following the manufacturer's protocol. Briefly, 2 mg protein in 1.25 ml IP lysis buffer was incubated by mixing for 1 h at 4° C. with control agarose beads to pre-clear the lysate and reduce nonspecific signal. Unbound lysate was then incubated overnight with 12 μg per reaction of the affinity purified anti-Fpn antibody F308 that was raised against a GST fusion protein of mouse Fpn amino acids 224-308. Immune complexes were captured by pipetting 14 μl settled Pierce Protein A/G Plus Agarose beads (Life Technologies, Cat. 20423) per reaction and the slurry was incubated for 1.5 h at 4° C. with gentle end-over-end mixing. The beads were washed and immune complexes were eluted directly with 75 μl SDS NuPAGE LDS sample buffer (Life Technologies, Cat. NP0007) containing DTT (Life Technologies, Cat. NP0009). After immunoprecipitation samples were analyzed by Western blotting using a rabbit anti-mouse MTP1 antiserum (Alpha Diagnostic International, Cat. MTP11-A) and a mouse anti-mono- and polyubiquitinylated conjugates monoclonal antibody (Enzo Lifesciences, Cat. BML-PW8810) for detection of ferroportin and ubiquitin, respectively. Mouse monoclonal anti-rabbit IgG light chain (Abcam, Cat. ab99697) and anti-mouse IgG H&L (Abcam, Cat. ab6789) HRP conjugates were used as secondary antibodies.
A selection of eleven Fpn inhibitors were tested in this assay and compared to hepcidin.
Table 5 Summary of Fpn inhibitors tested in the Fpn ubiquitination and degradation assay.

human Fpn = molecular target: T2, human Fpn (Homo sapiens, UniProt Q9NP59); test: Biophysical Ferroportin-Hepcidin Binding Assay (fluorescence polarization); conditions: average (AVE) of multiple measurements; TMR-hepcidin binding to purified human Fpn; read-out: FP IC50
T2 construct: FLAG (C); made in house; host or cells: Pichia pastoris
T2 sequence (Q9NP59 1-571): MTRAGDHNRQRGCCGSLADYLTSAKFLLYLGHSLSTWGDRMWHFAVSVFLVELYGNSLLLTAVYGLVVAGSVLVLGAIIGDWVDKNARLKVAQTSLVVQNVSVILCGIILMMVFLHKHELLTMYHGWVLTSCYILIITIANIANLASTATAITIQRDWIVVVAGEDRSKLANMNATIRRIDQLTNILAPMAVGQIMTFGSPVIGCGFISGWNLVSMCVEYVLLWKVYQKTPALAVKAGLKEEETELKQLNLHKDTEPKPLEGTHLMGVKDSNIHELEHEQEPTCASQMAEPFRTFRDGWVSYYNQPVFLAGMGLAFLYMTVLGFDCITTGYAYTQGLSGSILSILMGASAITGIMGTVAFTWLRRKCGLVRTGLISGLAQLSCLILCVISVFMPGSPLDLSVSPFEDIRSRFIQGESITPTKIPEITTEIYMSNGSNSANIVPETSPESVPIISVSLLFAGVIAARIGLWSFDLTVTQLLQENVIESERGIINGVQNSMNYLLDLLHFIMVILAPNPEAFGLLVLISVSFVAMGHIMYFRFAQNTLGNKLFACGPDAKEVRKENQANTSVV
Method: This biophysical assay was developed to confirm inhibition of hepcidin binding to ferroportin (Fpn) more directly. Incubation of TMR-hepcidin with purified human Fpn isolated from Pichia pastoris yeast cells expressing human Fpn with a C-terminal FLAG affinity tag (Bonaccorsi di Patti, 2014) leads to increased fluorescence polarization (FP) of the TMR-hepcidin ligand. Small molecular weight Fpn inhibitors were tested for inhibition of binding of TMR-hepcidin to Fpn, as detected by dose-dependent decrease of the TMR FP signal, as described in detail below.
A mixture of […] human Fpn and 30 nM TMR-hepcidin in FP assay buffer containing 50 mM Tris-HCl pH 7.3, 200 mM NaCl, 0.02% DDM, 0.1% BSA was plated into a 384 well black low volume round bottom plate (Corning, Cat. 3677) at 16 μl per well. 8 μl of serial dilutions of test compounds were added in duplicates to reach final Fpn and TMR-hepcidin concentrations of […] and 20 nM, respectively. Plates were incubated for 90 minutes at room temperature and parallel (S) and perpendicular (P) fluorescence was measured in a Synergy H1 fluorescence reader (BioTek). FP values were calculated in mP according to the following formula.

naïve WT C57BL/6 mice = test: Hypoferremia in naïve mice; type: in vivo, mouse; conditions: injection of synthetic hepcidin in WT naïve mice, from the vehicle control, maximal effect at 3-4 hours
Method: Female C57BL/6 mice (Janvier, France) at age of 9 weeks were fed a standard diet (Harlan Provimi Kliba 3436) and treated per os (p.o.) with compounds or the corresponding amount of vehicle at a volume of 10 ml/kg body weight. Fpn inhibitors were formulated in 0.5% methylcellulose/water or 20% cremophor EL/water and dosed p.o. in mice at 10, 30 or 100 mg/kg body weight. Three hours later, mice were pre-terminally anesthetized in isoflurane chambers and blood was collected by retro-orbital bleeding. Mice were sacrificed by cervical dislocation and spleens, livers and duodena were harvested and used for biomarker analysis. All experiments have been conducted in compliance with the license approved by the responsible veterinarian authorities. Serum was isolated by centrifugation of blood into gel-containing microtainers and serum iron was determined by the MULTIGENT Iron assay (Abbott Diagnostics, 6K95). Eight mice per group were used and one-way ANOVA with Bonferroni's multiple comparison test was performed to analyze the statistical differences between the experimental groups.
Relative serum iron reduction at 3 h after dosing was calculated by subtracting the average of serum iron values of animals dosed with the Fpn inhibitor from that of vehicle-treated animals. The difference in average serum iron values between vehicle and compound treated groups was then divided by the average of serum iron of the vehicle control group and listed as percentage.

Row | Structure (SMILES) | IC50 (ferroportin (Fpn) [1]) [µM] | Fpn Degradation (120 min.) (ferroportin (Fpn) [2]) | Fpn Ubiquitination (10 min.) (ferroportin (Fpn) [2]) | IC50 (human Fpn) [µM] | also measured
1 | Cc1cccnc1CNC(=O)c1csc(CCNCc2nc3ccccc3[nH]2)n1 [Example 55] | 0.015 | – | – | – | Serum Iron Inhibition (%) at 3 h (anemic Wistar rats; Dose 3 mg/kg oral): 54*** %; Serum Iron Inhibition (%) at 3 h (anemic Wistar rats; Dose 10 mg/kg oral): 72*** %
2 | O=C(NCc1ncccc1F)c1coc(CCNCc2nc3ccccc3[nH]2)n1 [Example 126] | – | + | +/− | – | –
3 | O=C(NCc1ccccn1)c1csc2c1CCN(CCc1nc3ccccc3[nH]1)C2 [Example 49] | 30.6 | – | – | 24 | –
4 | O=C(NCc1ccccc1F)c1coc(C2CN(CCCc3nc4ccccc4[nH]3)C2)n1 [Example 233] | 16 | – | – | 6.78 | –
5 | CC[C@H](C)[C@@H]1NC(=O)[C@@H](NC(=O)[C@@H](NC(=O)[C@@H]2CCCN2C(=O)[C@H](Cc2ccccc2)NC(=O)[C@H](Cc2c[nH]cn2)NC(=O)[C@@H](NC(=O)[C@@H](N)CC(=O)O)[C@@H](C)O)[C@@H](C)CC)CSSC[C@@H](C(=O)N[C@@H](CCCCN)C(=O)N[C@H](C(=O)O)[C@@H](C)O)NC(=O)[C@@H]2CSSC[C@@H]3NC(=O)[C@@H]4CSSC[C@H](NC(=O)[C@H](Cc5ccccc5)NC1=O)C(=O)N[C@@H](CSSC[C@H](NC(=O)[C@H](CCCCN)NC(=O)[C@H](CO)NC(=O)[C@H](CCCNC(=N)N)NC(=O)[C@H](Cc1c[nH]cn1)NC3=O)C(=O)NCC(=O)N[C@@H](CCSC)C(=O)N2)C(=O)NCC(=O)N4 [hepcidin, reference compound] | – | + | + | – | reduction of serum iron levels (naïve WT C57BL/6 mice): 40-50%
